Assay results as given in ChEMBL document CHEMBL5149962, “Targeting KRAS mutant cancers by preventing signaling transduction in the MAPK pathway” (Eur J Med Chem, 2021).
Values belong to the compound of their own block, whether it stands above or below them. Where a SMILES comes first, the peptide text is derived from it. Bridges are numbered along the chain shown (N, C = ends). [ ]: non-standard residue; d: D form. S5 = C=CCCC[C@](C)(N)C(=O)O

Columns and labels:
RPMI-8226 = assay: Induction of apoptosis in human RPMI-8226 cells harboring KRAS mutant assessed as reduction in cell viability measured after 48 hrs by Annexin V-FITC staining based flow cytometry analysis; format: functional; settings: RPMI-8226, 48 h
[1] = Induction of apoptosis in human U266B cells harboring wild type RAS mutant assessed as reduction in cell viability measured after 48 hrs by Annexin V-FITC staining based flow cytometry analysis; format: functional
MCF-10A = assay: Antiproliferative activity against human MCF-10A cells harboring HRAS mutant incubated for 48 hrs by MTT assay; format: functional, cell-based
NCI-H929 = assay: Induction of apoptosis in human NCI-H929 cells harboring NRAS mutant assessed as reduction in cell viability measured after 48 hrs by Annexin V-FITC staining based flow cytometry analysis; format: functional
MDA-MB-231 = assay: Antiproliferative activity against human MDA-MB-231 cells harboring HRAS mutant incubated for 48 hrs by MTT assay; format: functional, cell-based; settings: MDA-MB-231, 48 h
[2] = Antiproliferative activity against human Hs578Bst cells harboring HRAS mutant incubated for 48 hrs by MTT assay; format: functional, cell-based
[3] = Inhibition of human N-terminal His-tagged recombinant wild-type KRAS (1 to 156 residues) expressed in Escherichia coli BL21 (DE3)/SAH-SOS1A by fluorescence based polarization assay
GTPase HRas [4] = biological target: T1, GTPase HRas (Homo sapiens, UniProt P01112); assay: Inhibition of human p21 h-RAS assessed as reduction in C-Cdc25 stimulated nucleotide exchange by luminescence spectrometer based analysis
SW480 = assay: Antiproliferative activity against human SW480 cells assessed as cell growth inhibition by CCK-8 assay relative to control; format: functional
HCT-116 = assay: Antiproliferative activity against human HCT-116 cells harboring KRAS G13D mutant assessed as cell growth inhibition measured after 96 hrs by MTT assay; format: functional
[5] = Binding affinity to recombinant human KRAS (1 to 169 residues) expressed in Escherichia coli - recombinant human SOS1 (560 to 1049 residues) expressed in Escherichia coli assessed as dissociation constant
GTPase KRas = GTPase KRas (Homo sapiens, UniProt P01116); assay: Binding affinity to KRAS (unknown origin) assessed as dissociation constant
A549 [6] = assay: Cytotoxicity against human A549 cells assessed as cell growth inhibition after 72 hrs in presence of doxorubicin by MTT assay; format: functional, cell-based; settings: A549, 72 h
HT-29 [7] = assay: Cytotoxicity against human HT-29 cells assessed as cell growth inhibition after 72 hrs by MTT assay; format: functional, cell-based; settings: HT-29, 72 h
GTPase NRas = GTPase NRas (Homo sapiens, UniProt P01111); assay: Binding affinity to NRAS (unknown origin) assessed as inhibition constant
GTPase HRas [8] = biological target: T1, GTPase HRas; assay: Binding affinity to HRAS (unknown origin) assessed as inhibition constant
HT-29 [9] = assay: Cytotoxicity against human HT-29 cells assessed as cell growth inhibition after 72 hrs in presence of doxorubicin by MTT assay; format: functional, cell-based; settings: HT-29, 72 h
[10] = Antiproliferative activity against human cancer cell lines harboring wild type RAS mutation assessed as reduction in cell viability; format: functional, cell-based
A549 [11] = assay: Cytotoxicity against human A549 cells assessed as cell growth inhibition after 72 hrs by MTT assay; format: functional, cell-based; settings: A549, 72 h
[12] = Antiproliferative activity against human cancer cell lines harboring KRAS mutation assessed as reduction in cell viability; format: functional, cell-based
[13] = Cmax in cynomolgus monkey; format: ADME, Macaca fascicularis; settings: in vivo
[14] = AUC in cynomolgus monkey; format: ADME, Macaca fascicularis; settings: in vivo
[15] = Reduction in KRAS mutant level in tumor of human PANC-1 cells xenografted nude mouse at 40 mg/kg, po administered daily for 10 days by immunoblot analysis relative to control; format: functional; parameters: scale not given: the % may be the effect or the level left; settings: time 10 day
[16] = Reduction in KRAS-GTP mutant level in tumor of human PANC-1 cells xenografted nude mouse at 40 mg/kg, po administered daily for 10 days by immunoblot analysis relative to control; format: functional; parameters: scale not given: the % may be the effect or the level left; settings: time 10 day
[17] = Toxicity in nude mouse xenografted with human PANC-1 cells assessed as reduction in body weight at 40 mg/kg, po administered daily for 10 days relative to control; format: organism-based; parameters: scale not given: the % may be the effect or the level left; settings: in vivo, 240 h, time 10 day
[18] = Reduction in phosphor-ERK mutant level in tumor of human PANC-1 cells xenografted nude mouse at 40 mg/kg, po administered daily for 10 days by immunoblot analysis relative to control; format: functional; parameters: scale not given: the % may be the effect or the level left; settings: time 10 day
A549 [19] = assay: Antitumor activity against human A549 cells xenografted in athymic nude mice assessed as inhibition of tumor growth at 50 mg/kg, po administered daily measured after 16 days relative to control; format: functional; parameters: scale not given: the % may be the effect or the level left; settings: time 16 day
SK-MES-1 = assay: Antitumor activity against human SK-MES-1 HTB-58 cells xenografted in athymic nude mouse assessed as reduction in tumour volume at 10 mg/kg, ip administered once daily measured after 24 days; format: functional; settings: time 24 day
Rat1 = assay: Inhibition of cell growth in rat Rat1 cells transfected with HRAS; format: functional, cell-based
HT-29 [20] = assay: Antiproliferative activity against human HT-29 cells assessed as reduction in cell growth at 100 uM measured after 7 days relative to control; format: functional; parameters: scale not given: the % may be the effect or the level left; settings: time 7 day
A549 [21] = assay: Antitumor activity against human A549 cells xenografted in athymic nude mouse assessed as reduction in tumour volume at 10 mg/kg, ip administered once daily measured after 24 days relative to control; format: functional; parameters: scale not given: the % may be the effect or the level left; settings: time 24 day
SU.86.86 = assay: Antiproliferative activity against human SU-86-86 cells harboring KRAS 12 mutation assessed as inhibition of cell growth incubated for 4 to 7 days; format: functional, cell-based
HT1197 = assay: Antiproliferative activity against human HT1197 cells harboring HRAS 61 mutation assessed as inhibition of cell growth incubated for 4 to 7 days; format: functional, cell-based
[22] = Inhibition of human FPTase using K-RasB peptide as a substrate assessed as inhibition of substrate farnesylation
NCI-H441 = assay: Antiproliferative activity against human NCI-H441 cells harboring KRAS 12 mutation assessed as inhibition of cell growth incubated for 4 to 7 days; format: functional, cell-based
Capan-2 = assay: Antiproliferative activity against human Capan-2 cells harboring KRAS 12 mutation assessed as inhibition of cell growth incubated for 4 to 7 days; format: functional, cell-based
[23] = Competitive inhibition of human FPTase using K-RasB peptide as a substrate assessed as inhibition constant by Scintillation proximity assay

T1 sequence (P01112 whole entry): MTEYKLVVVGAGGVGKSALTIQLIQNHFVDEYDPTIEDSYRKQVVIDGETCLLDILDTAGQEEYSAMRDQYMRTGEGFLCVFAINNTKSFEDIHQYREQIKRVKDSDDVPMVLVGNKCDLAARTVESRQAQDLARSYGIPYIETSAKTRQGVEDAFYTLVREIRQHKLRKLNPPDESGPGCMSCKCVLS
Chain of GTPase KRas (P01116 whole entry): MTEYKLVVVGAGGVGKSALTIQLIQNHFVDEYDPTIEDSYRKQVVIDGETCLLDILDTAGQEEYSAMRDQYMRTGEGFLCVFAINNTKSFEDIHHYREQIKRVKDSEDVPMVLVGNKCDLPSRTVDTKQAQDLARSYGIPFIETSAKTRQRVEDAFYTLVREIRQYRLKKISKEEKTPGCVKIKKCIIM
Chain of GTPase NRas (P01111 whole entry): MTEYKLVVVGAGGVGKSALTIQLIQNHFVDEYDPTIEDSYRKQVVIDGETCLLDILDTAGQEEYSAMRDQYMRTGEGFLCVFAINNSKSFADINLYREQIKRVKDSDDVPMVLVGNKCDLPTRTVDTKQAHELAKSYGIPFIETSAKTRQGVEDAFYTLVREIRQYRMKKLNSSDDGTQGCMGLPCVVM

IC50 (RPMI-8226): 41.6 µM | IC50 (NCI-H929): 12.7 µM | IC50 (MDA-MB-231): 29.3 µM
Compound: COC(=O)[C@H](CCSC)NC(=O)c1ccc(NC[C@H](N)CS)cc1-c1ccccc1
IC50 [1]: 25.4 µM | IC50 (MCF-10A): 6.83 µM | IC50 [2]: 14.9 µM

EC50 [3]: 0.1 µM
Compound: CC[C@H](C)[C@H](NC(=O)CNC(=O)[C@H](Cc1ccccc1)NC(=O)[C@@H](N)Cc1ccccc1)C(=O)N[C@@]1(C)CCC/C=C\CCC[C@@](C)(C(=O)N[C@@H](CC(C)C)C(=O)N[C@@H](CCCCN)C(=O)N[C@H](C(=O)N[C@@H](CCC(=O)O)C(=O)N[C@@H](CCC(=O)O)C(=O)NCC(=O)N[C@@H](CC(N)=O)C(=O)O)[C@@H](C)O)NC(=O)[C@H](CC(N)=O)NC(=O)[C@H]([C@@H](C)O)NC(=O)[C@H](CC(C)C)NC1=O

IC50 (GTPase HRas [4]): 35.5 µM
Compound: [O-][S+](NC[C@@H]1CC2O[C@H](OCc3ccccc3)[C@@H](OCc3ccccc3)C2O1)c1ccc(NO)cc1 (stereo not given in full)

EC50 [3]: 0.1 µM
Compound: CC[C@H](C)[C@H](NC(=O)[C@]1(C)CCC/C=C\CCC[C@](C)(NC(=O)CNC(=O)[C@H](Cc2ccccc2)NC(=O)[C@@H](N)Cc2ccccc2)C(=O)N[C@@H](Cc2ccc(O)cc2)C(=O)N[C@@H](CC(C)C)C(=O)N[C@@H]([C@@H](C)O)C(=O)N1)C(=O)N[C@@H](CC(C)C)C(=O)N[C@@H](CCCCN)C(=O)N[C@H](C(=O)N[C@@H](CCC(=O)O)C(=O)N[C@@H](CCC(=O)O)C(=O)NCC(=O)N[C@@H](CC(N)=O)C(=O)O)[C@@H](C)O

Compound: Cc1ccc(NC(=S)NNc2c([N+](=O)[O-])cc(C(F)(F)F)cc2[N+](=O)[O-])cc1Cl
inhibition (INH) (SW480): 66.3%

EC50 [3]: 0.1 µM
Compound: CC[C@H](C)[C@@H]1NC(=O)CNC(=O)[C@@](C)(NC(=O)[C@@H](N)Cc2ccccc2)CCC/C=C\CCC[C@@](C)(C(=O)N[C@H](C(=O)N[C@@H](C)C(=O)N[C@H](C(=O)N[C@@H](CC(C)C)C(=O)N[C@@H](CCCCN)C(=O)N[C@H](C(=O)N[C@@H](CCC(=O)O)C(=O)N[C@@H](CCC(=O)O)C(=O)NCC(=O)N[C@@H](CC(N)=O)C(=O)O)[C@@H](C)O)[C@@H](C)CC)[C@@H](C)O)NC(=O)[C@H](Cc2ccc(O)cc2)NC1=O (H-F[S5]GIY[S5]TAILKTEEGN-OH; staple (Z) 2-6)

GI50 (HCT-116): 4.5 µM
Compound: C=C1CC[C@@H]2[C@](C)(CO)[C@H](O)CC[C@@]2(C)[C@@H]1C/C=C1/C(=O)OC[C@H]1O [ANDROGRAPHOLIDE]

Compound: CNCc1ccccc1-c1csc([C@@H](C)Nc2nc(C)nc3cc(OC)c(OC)cc23)c1 [BAY-293]
Kd [5]: 0.036 µM

Compound: c1ccc2[nH]cnc2c1 [BENZIMIDAZOLE]
Kd (GTPase KRas): 1500 µM

Ki (GTPase NRas): 0.0003 µM | Ki (GTPase HRas [8]): 0.0016 µM
Compound: N#Cc1ccc(Cn2cncc2CN2CCN(c3cccc(Cl)c3)C(=O)C2)cc1 [L-778123 FREE BASE]
IC50 (A549 [6]): 1.72 µM | IC50 (HT-29 [7]): 126 µM | IC50 (HT-29 [9]): 1.52 µM | IC50 [10]: 0.07 µM | IC50 (A549 [11]): 101 µM | IC50 [12]: 2.28 µM

Compound: NC(=O)N1CCC(CC(=O)N2CCC([C@H]3c4ncc(Br)cc4CCc4cc(Cl)cc(Br)c43)CC2)CC1 [LONAFARNIB]
Cmax [13]: 1900 nM | AUC [14]: 14700 ng·h/mL

Compound: CC(C)=CCC/C(C)=C/CC/C(C)=C/CSc1ccccc1C(=O)O [SALIRASIB]
Activity [15]: 50% | Activity [16]: 64% | Activity [17]: 67% | Activity [18]: 84% | Activity (A549 [19]): 53.7% | Activity (SK-MES-1): 0.03 cm3 | EC50 (Rat1): 7.5 µM | Activity (HT-29 [20]): 85% | Activity (A549 [21]): 53.8%

Compound: CNC(=O)c1cc(Oc2ccc(NC(=O)Nc3ccc(Cl)c(C(F)(F)F)c3)cc2)ccn1 [SORAFENIB]
inhibition (INH) (SW480): 83.8%

Compound: Cn1cncc1[C@@](N)(c1ccc(Cl)cc1)c1ccc2c(c1)c(-c1cccc(Cl)c1)cc(=O)n2C [TIPIFARNIB]
IC50 (SU.86.86): 0.0095 µM | IC50 (HT1197): 0.0017 µM | IC50 [22]: 0.0079 µM | IC50 (NCI-H441): 0.036 µM | IC50 (Capan-2): 0.016 µM | Ki [23]: 0.0005 µM
